In patent US20240279215A1 (Cytokinetics, Incorporated, priority 2022, published 2024):

Biological target: human NAMPT (Homo sapiens (Human), UniProt P43490)
Assay: NMN fluorescence biochemical assay (human recombinant NAMPT enzyme assay)
Experimental: Compounds described herein were assayed for their ability to stimulate the synthesis of nicotinamide mononucleotide (NMN) by the enzyme NAMPT. The human recombinant enzyme assay measures the activation of the enzyme activity by compounds using recombinant enzyme and substrates in a buffered cell-free system. The assay conditions closely mimic cellular environments. Dose responses were measured using an assay to detect the formation of nicotinamide mono-nucleotide. All experiments were performed in the 384-well format. Generally, 0.5 μL of DMSO containing varying concentrations of the test compound was mixed with 10 μL of the enzyme reagent solution. Enzyme reactions were initiated with the addition of […] containing the substrates. The final assay conditions were as follows: 6 nM human NAMPT, 2.5 mM ATP, 20 μM PRPP and 150 μM nicotinamide in 50 mM HEPES, pH 7.2, 1 mM DTT, 1 mM CHAPS 50 mM NaCl, 100 mM MgCl2. Following an incubation of 60 min at ambient temperature, 10 μL of 20% acetophenone in DMSO was added, followed by 10 μL of 2 M KOH and 40 μL of formic acid. The plates were read for fluorescence (Excitation/Emission=355 nm/460 nm) using an EnVision plate reader after 40 mins of incubation at ambient temperature.

Chain of human NAMPT (P43490 whole entry): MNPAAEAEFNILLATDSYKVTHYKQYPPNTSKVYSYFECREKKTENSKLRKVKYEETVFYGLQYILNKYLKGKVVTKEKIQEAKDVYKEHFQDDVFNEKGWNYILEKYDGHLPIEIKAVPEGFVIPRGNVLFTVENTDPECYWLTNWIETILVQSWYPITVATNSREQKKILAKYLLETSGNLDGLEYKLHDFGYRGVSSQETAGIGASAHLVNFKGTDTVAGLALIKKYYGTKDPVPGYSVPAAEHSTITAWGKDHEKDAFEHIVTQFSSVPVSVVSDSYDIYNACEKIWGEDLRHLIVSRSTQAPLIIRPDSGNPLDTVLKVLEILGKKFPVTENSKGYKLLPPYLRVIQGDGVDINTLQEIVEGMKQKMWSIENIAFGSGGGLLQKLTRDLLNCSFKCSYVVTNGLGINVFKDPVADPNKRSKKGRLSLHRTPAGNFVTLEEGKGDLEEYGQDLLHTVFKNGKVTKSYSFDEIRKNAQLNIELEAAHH

AC1.4 Human [µM] | EC50 [µM] | SMILES
1.58 | 14.9 | COC1CCN(C(=O)NCc2ccc(NC(=O)OCc3ccc(Cl)cc3)cc2)CC1 [Compound 184, (4-chlorophenyl)methyl N-{4-[(4-methoxypiperidine-1-carbonylamino)methyl]phenyl}carbamate]
4.66 | 20.4 | CN(Cc1ccc(NC(=O)OCc2ccc(Cl)cc2)cc1)C(=O)c1ccc(C(F)F)nc1 [Compound 298, (4-chlorophenyl)methyl N-[4-({1-[6-(difluoromethyl)pyridin-3-yl]-N-methylformamido}methyl)phenyl]carbamate]
0.85 | 5.06 | Cc1ccc(C(=O)N(C)Cc2ccc(NC(=O)OCc3ccc(Cl)cc3)cc2)cn1 [Compound 104, (4-chlorophenyl)methyl N-(4-{[N-methyl-1-(6-methylpyridin-3-yl)formamido]methyl}phenyl)carbamate]
1.88 | 21.6 | Cc1ncoc1C(=O)NCc1ccc(NC(=O)OCc2ccc(Cl)cc2)cc1 [Compound 209, (4-chlorophenyl)methyl N-(4-{[(4-methyl-1,3-oxazol-5-yl)formamido]methyl}phenyl)carbamate]
0.75 | 2.36 | CC(C)Cn1nccc1C(=O)N(C)Cc1ccc(NC(=O)OCc2ccc(Cl)cc2)cc1 [Compound 94, (4-chlorophenyl)methyl N-[4-({N-methyl-1-[2-(2-methylpropyl)pyrazol-3-yl]formamido}methyl)phenyl]carbamate]
0.35 | 7.8 | Cc1ccc(C(=O)NCc2ccc(NC(=O)OCc3cnco3)cc2)cn1 [Compound 25, oxazol-5-ylmethyl (4-((6-methylnicotinamido)methyl)phenyl)carbamate]
7.23 | 39.3 | Cc1nnc(Cc2ccc(NC(=O)OCc3ccc(Cl)cc3)cc2)o1 [Compound 322, (4-chlorophenyl)methyl N-{4-[(5-methyl-1,3,4-oxadiazol-2-yl)methyl]phenyl}carbamate]
0.51 | 1.82 | CN(Cc1ccc(NC(=O)OCc2ccc(Cl)cc2)cc1)C(=O)c1c(F)cncc1F [Compound 55, (4-chlorophenyl)methyl N-(4-{[1-(3,5-difluoropyridin-4-yl)-N-methylformamido]methyl}phenyl)carbamate]
0.35 | 27.5 | CC(=O)N1CCC(CCc2ccc(NC(=O)OCc3cnco3)cc2)CC1 [Compound 26, oxazol-5-ylmethyl (4-(2-(1-acetylpiperidin-4-yl)ethyl)phenyl)carbamate]
13.52 | 45.3 | O=C1CN(C2COC2)[C@@H](c2ccc(NC(=O)OCc3ccc(Cl)cc3)cc2)CN1 [Compound 346, 4-chlorobenzyl (S)-(4-(1-(oxetan-3-yl)-5-oxopiperazin-2-yl)phenyl)carbamate]
3.56 | 46.9 | CC(=O)N1CCOC(c2ccc(NC(=O)OCc3ccc(Cl)cc3)cc2)C1 (stereo not shown) [Compound 281, (4-chlorophenyl)methyl N-[4-(4-acetylmorpholin-2-yl)phenyl]carbamate]
0.38 | 0.82 | CN(C)S(=O)(=O)N1CCC(Cc2ccc(NC(=O)OCc3ccc(Cl)cc3)cc2)CC1 [Compound 34, 4-chlorobenzyl (4-((1-(N,N-dimethylsulfamoyl)piperidin-4-yl)methyl)phenyl)carbamate]
0.24 | 26.1 | O=C(Nc1ccc(CC2CCN(C(=O)C3CCC3)CC2)cc1)OCc1cnco1 [Compound 469, oxazol-5-ylmethyl (4-((1-(cyclobutanecarbonyl)piperidin-4-yl)methyl)phenyl)carbamate]
0.07 | 2.58 | CN(C)S(=O)(=O)N1CCC(c2ccc(NC(=O)OCc3cnco3)cc2F)CC1 [Compound 416, oxazol-5-ylmethyl (4-(1-(N,N-dimethylsulfamoyl)piperidin-4-yl)-3-fluorophenyl)carbamate]
2.33 | 2.73 | CC1CCN(C(=O)Cc2ccc(NC(=O)OCc3ccc(Cl)cc3)cc2)CC1 [Compound 240, (4-chlorophenyl)methyl N-{4-[2-(4-methylpiperidin-1-yl)-2-oxoethyl]phenyl}carbamate]
1.95 | 2.92 | COc1nc(C)ccc1C(=O)N[C@@H](C)c1ccc(NC(=O)OCc2ccc(Cl)cc2)cc1 [Compound 213, (4-chlorophenyl)methyl N-{4-[(1S)-1-[(2-methoxy-6-methylpyridin-3-yl)formamido]ethyl]phenyl}carbamate]
1.11 | 8.41 | COc1cc(C(=O)NCc2ccc(NC(=O)OCc3ccc(Cl)cc3)cc2)n(C)n1 [Compound 138, (4-chlorophenyl)methyl N-(4-{[(5-methoxy-2-methylpyrazol-3-yl)formamido]methyl}phenyl)carbamate]

The remaining lines, values behind:

SMILES | AC1.4 Human [µM] | EC50 [µM]
O=C(Cc1ccc(NC(=O)OCc2ccc(Cl)cc2)cc1)N[C@H]1CC[C@H](OC(F)(F)F)CC1 [Compound 338, (4-chlorophenyl)methyl N-[4-({[(1r,4r)-4-(trifluoromethoxy)cyclohexyl]carbamoyl}methyl)phenyl]carbamate] | 10.44 | 18.4
CC(=O)N1CC2CCC(C1)C2Cc1ccc(NC(=O)OCc2cnco2)cc1 (stereo not shown) [Compound 424, oxazol-5-ylmethyl (4-((3-acetyl-3-azabicyclo[3.2.1]octan-8-yl)methyl)phenyl)carbamate] | 0.04 | 1.13
O=C(Nc1ccc(Cc2ccncc2)cc1)OCc1cncs1 [Compound 201, thiazol-5-ylmethyl (4-(pyridin-4-ylmethyl)phenyl)carbamate] | 1.78 | 26.4
Cn1cc(C(=O)NCc2ccc(NC(=O)OCc3ccc(Cl)cc3)cc2)cn1 [Compound 193, (4-chlorophenyl)methyl N-(4-{[(1-methylpyrazol-4-yl)formamido]methyl}phenyl)carbamate] | 1.71 | 12.7
O=C(Nc1ccc(CNC(=O)N2CCOCC2)cc1)OCc1ccc(Cl)cc1 [Compound 270, (4-chlorophenyl)methyl N-{4-[(morpholine-4-carbonylamino)methyl]phenyl}carbamate] | 3.14 | 47.2
O=C(Nc1ccc(CC2CCN(C3COC3)CC2)c(F)c1)OCc1cnco1 [Compound 452, oxazol-5-ylmethyl (3-fluoro-4-((1-(oxetan-3-yl)piperidin-4-yl)methyl)phenyl)carbamate] | 0.18 | 13
O=C1CN(C(=O)C(F)(F)c2ccc(NC(=O)OCc3ccc(Cl)cc3)cc2)CCN1 [Compound 312, (4-chlorophenyl)methyl N-{4-[1,1-difluoro-2-oxo-2-(3-oxopiperazin-1-yl)ethyl]phenyl}carbamate] | 5.55 | 39.1
COC(=O)N1CCC(Cc2ccc(NC(=O)OCc3cnco3)cc2F)CC1 [Compound 450, methyl 4-(2-fluoro-4-(((oxazol-5-ylmethoxy)carbonyl)amino)benzyl)piperidine-1-carboxylate] | 0.13 | 4.97
O=C(Nc1ccc(CC2CCN(C(=O)C3CC(F)(F)C3)CC2)cc1)OCc1cnco1 [Compound 470, oxazol-5-ylmethyl (4-((1-(3,3-difluorocyclobutane-1-carbonyl)piperidin-4-yl)methyl)phenyl)carbamate] | 0.98 | 37.5
CN(C)S(=O)(=O)N1CCC(Cc2ccc(NC(=O)OCc3cnco3)cc2F)CC1 [Compound 447, oxazol-5-ylmethyl (4-((1-(N,N-dimethylsulfamoyl)piperidin-4-yl)methyl)-3-fluorophenyl)carbamate] | 0.08 | 2.31
Cc1ncc(C(=O)N(C)Cc2ccc(NC(=O)OCc3ccc(Cl)cc3)cc2)o1 [Compound 85, (4-chlorophenyl)methyl N-(4-{[N-methyl-1-(2-methyl-1,3-oxazol-5-yl)formamido]methyl}phenyl)carbamate] | 0.67 | 6.38
CN(C)C(=O)N1C2CCC1CC(Cc1ccc(NC(=O)OCc3cnco3)cc1)C2 (stereo not shown) [Compound 408, oxazol-5-ylmethyl (4-((8-(dimethylcarbamoyl)-8-azabicyclo[3.2.1]octan-3-yl)methyl)phenyl)carbamate] | 0.05 | 3.44
O=C(Nc1ccc(C2CCN(C(=O)N3CCC3)CC2)cc1)OCc1cnco1 [Compound 429, oxazol-5-ylmethyl (4-(1-(azetidine-1-carbonyl)piperidin-4-yl)phenyl)carbamate] | 0.19 | 41.6
Cc1nn(C)c(C(=O)N(C)Cc2ccc(NC(=O)OCc3ccc(Cl)cc3)cc2)c1C [Compound 127, (4-chlorophenyl)methyl N-(4-{[N-methyl-1-(2,4,5-trimethylpyrazol-3-yl)formamido]methyl}phenyl)carbamate] | 1.00 | 7.3
O=C(Nc1ccc(CNC(=O)c2ocnc2C2CC2)cc1)OCc1ccc(Cl)cc1 [Compound 343, (4-chlorophenyl)methyl N-(4-{[(4-cyclopropyl-1,3-oxazol-5-yl)formamido]methyl}phenyl)carbamate] | 11.85 | 21.9
